Values quoted from earlier work, collected in article PMC3066546, “Development of modified nucleosides that have supremely high anti-HIV activity and low toxicity and prevent the emergence of resistant HIV mutants” (Proceedings of the Japan Academy. Series B, Physical and …, 2011).
Where two headings read alike, the source gives them in different places.

Columns and labels:
[1] = biological target: human mitochondrion DNA polymerase (DNA polymerase γ); parameters: method as in PMID 17548498, PMID 18487070; details: read-out: EC50 to inhibit the incorporation of dATP
[2] = biological target: DNA polymerase β; details: read-out: EC50 against DNA polymerase β
[3] = CEM cells, MT4 cells, MAGI-CCR5 cells
[4] = biological target: DNA polymerase α; details: read-out: EC50 against DNA polymerase α
[5] = system: wild-type HIV
[6] = system: HIV-1MDR; parameters: method as in PMID 18487070; details: Table 7; read-out: Anti-HIV activity (MAGI assay, µg) HIV-1MDR
[7] = system: HIV-1M184V; parameters: method as in PMID 18487070; details: Table 7; read-out: Anti-HIV activity (MAGI assay, µg) HIV-1M184V
[8] = system: HIV-1wild; parameters: method as in PMID 18487070; details: Table 7; read-out: Anti-HIV activity (MAGI assay, µg) HIV-1wild
[9] = system: M184V-mutant
[10] = system: multi-drug resistant HIV mutant
[11] = system: RT of wild-type HIV; parameters: method as in PMID 15456247; details: compared with AZTTP
[12] = system: RT of the M184V mutant; parameters: method as in PMID 15456247; details: 4′EddCTP compared with RT of wild-type HIV
[13] = parameters: method as in PMID 563233, PMID 17548498, PMID 18487070; details: 120 min, acidic conditions of gastric juices (pH 1.06), 24 ℃
[14] = system: adenosine deaminase; parameters: method as in PMID 563233, PMID 17548498, PMID 18487070; details: conditions where 4′EdA was completely deaminated in 60 min
[15] = system: HIV-1 MDR; parameters: method as in PMID 563233, PMID 17548498, PMID 18487070; details: Table 6
[16] = system: ICR mice
[17] = Table 6
[18] = system: HIV-1 Wild-type; parameters: method as in PMID 563233, PMID 17548498, PMID 18487070; details: Table 6
[19] = system: HIV-1 M184V; parameters: method as in PMID 563233, PMID 17548498, PMID 18487070; details: Table 6
[20] = system: HIV; details: 24 h after removal of extracellular drug, MT4 cells and MAGI cells cultured with 0.1 µM
[21] = system: HIV; parameters: method as in PMID 15456247

C#C[C@]1(COP(=O)(O)OP(=O)(O)OP(=O)(O)O)O[C@@H](n2cnc3c(N)nc(F)nc32)C[C@@H]1O [4′Ed2FATP, 2′-deoxy-4′-C-ethynyl-2-fluoroadenosine-5-O-triphosphate]
EC50 [1]: 10000 nM | EC50 [2]: > 200000 nM | intracellular half-life (T1/2) [3]: ~18 h | EC50 [4]: > 200000 nM

C#C[C@@]1(CO)C=C[C@H](n2cc(C)c(=O)[nH]c2=O)O1 [4′Ed4T, 4′-C-ethynyl-2′,3′-didehydro-3′-deoxythymidine]
potency against wild-type HIV compared with d4T [5]: more potent | EC50 [6]: 1100 nM | EC50 [7]: 17000 nM | EC50 [8]: 1500 nM | potency against M184V-mutant compared with d4T [9]: a little less potent | potency against multi-drug resistant HIV mutant compared with d4T [10]: more potent

C#CC1(COP(=O)(O)OP(=O)(O)OP(=O)(O)O)CCC(n2ccc(N)nc2=O)O1 (stereo not drawn) [4′EddCTP]
activity against the RT of wild-type HIV [11]: more active | activity against RT of the M184V mutant [12]: much less active

C#C[C@]1(CO)O[C@@H](n2cnc3c(N)nc(F)nc32)C[C@@H]1O [4′Ed2FA, 2′-deoxy-4′-C-ethynyl-2-fluoroadenosine]
part decomposed [13]: 3% | EC50 [6]: 0.14 nM | stability to adenosine deaminase [14]: completely stable | EC50 [15]: 0.15 nM | Survivors/total ([16]; i.v., single dosage 1 mg Kg−1, ICR mice): 8/8 | Survivors/total ([16]; i.v., single dosage 3 mg Kg−1, ICR mice): 8/8 | Survivors/total ([16]; i.v., single dosage 10 mg Kg−1, ICR mice): 8/8 | Survivors/total ([16]; i.v., single dosage 30 mg Kg−1, ICR mice): 8/8 | Survivors/total ([16]; i.v., single dosage 100 mg Kg−1, ICR mice): 8/8 | acute toxicity to mice ([16]; oral or intravenous administration up to 100 mg kg−1): did not show any acute toxicity | Survivors/total ([16]; p.o, single dosage 1 mg Kg−1, ICR mice): 8/8 | Survivors/total ([16]; p.o, single dosage 3 mg Kg−1, ICR mice): 8/8 | Survivors/total ([16]; p.o, single dosage 10 mg Kg−1, ICR mice): 8/8 | Survivors/total ([16]; p.o, single dosage 30 mg Kg−1, ICR mice): 8/8 | Survivors/total ([16]; p.o, single dosage 100 mg Kg−1, ICR mice): 8/8 | CC50 [17]: 7500 nM | EC50 [18]: 0.068 nM | EC50 [19]: 3.1 nM | cells protected against the infection of HIV [20]: About 50% | EC50 [8]: 0.2 nM

C#C[C@@]1(CO)CC[C@H](n2ccc(N)nc2=O)O1 [4′EddC, 4′-C-ethynyl-2′,3′-dideoxycytidine]
activity against HIV in cellular systems [21]: inactive
